# From patent US20190017026A1, “METHOD AND DEVICE FOR CONSERVING VIABLE AND FUNCTIONAL HUMAN POLYMORPHONUCLEAR NEUTROPHILS” (INSTITUT PASTEUR, priority 2014, published 2019)
# “Also recorded” adds a separate entry of the source. Counter-ions that a name gives are not always drawn.
# Legend:
# human neutrophils = test: Neutrophil survival rate by flow cytometry (Annexin V-/PI-) upon storage; assay type: cell-based; details: for neutrophil survival rate (Annexin V-/PI-): 3 mM glucose, 32 μg/mL DMOG
# Description: Neutrophils fractions with a >95% purity obtained by applying Method 1 or Method 2 were resuspended at a 5×10^6 cells/mL concentration in RPMI 1640 with L Glutamine and 25 mM Hepes (Gibco, Life Technologies), 10% of heat inactivated Foetal Bovine Serum (FBS) (Invitrogen, Gibco) and indicated concentrations of glucose (Sigma-Aldrich) and Dimethyloxalylglycine or DMOG (Cayman Chemical Company). For comparative experiments aiming at characterizing the role of oxygen on neutrophils survival, purified neutrophils (Method 1 or Method 2) were split in two identical fractions. One was stored at 37° C. with 5% CO2 under atmospheric conditions (20% O2 condition, +O2). The second one was stored at 37° C. in an anoxic chamber ([…], Don […]) under an atmosphere containing 90% N2, 5% CO2 and 5% H2 (0% O2 condition, -O2), during indicated time. Cell viability. For neutrophil survival analysis, human neutrophils (1×10^6) were washed twice in PBS and then resuspended in 1 ml of Annexin V binding Buffer. A 100 μl sample (1×10^5 cells) was stained with 5 μl of APC-Annexin V and 5 μl of Propidium iodide (PI) (0.5 μg/ml final concentration) as recommended by the manufacturer. At least 10^4 events were acquired for each condition on a FACSCaliburTM flow cytometer (BD Biosciences), and data were analyzed using CellQuestTM Pro Software (BD Biosciences). Viable cells were defined as Annexin V-/PI- quantifications. In this study, neutrophil survival rate was evaluated in various conditions by flow cytometry, by quantifying the proportion of viable (propidium iodide negative staining, PI-) and non-apoptotic (Annexin V negative staining, Annexin V-) cells.
# neutrophils = details: normoxic conditions; cited from earlier work
compound,measurement,setting,value
"O=C(O)CC(O)(CC(=O)O)C(=O)O [citrate, sodium citrate]",neutrophils survival rate as compared to heparin as anticoagulant,"human neutrophils; blood collected with citrate, presence or absence of oxygen, 20 h and 48 h post purification",significant increase of neutrophils survival rate; also recorded: improved
"COC(=O)CNC(=O)C(=O)OC [DMOG, Dimethyloxalylglycine]",neutrophil survival rate (Annexin V-/PI-),"human neutrophils; citrate (Method 2), anoxia, 20 h",70±8%
same,neutrophil survival rate (Annexin V-/PI-),"human neutrophils; citrate (Method 2), anoxia, 48 h",49±2%
same,neutrophil survival rate (Annexin V-/PI-),"human neutrophils; heparin (Method 1), absence of oxygen, 20 h storage",54+10%
same,neutrophil survival rate (Annexin V-/PI-),"human neutrophils; heparin (Method 1), absence of oxygen, 48 h storage",14+10%
same,effect on neutrophil apoptosis,neutrophils,decreases apoptosis
O=C(O)CN(CCN(CC(=O)O)CC(=O)O)CC(=O)O [EDTA],neutrophils survival as compared to citrate at blood collection,human neutrophils; blood collected with EDTA instead of citrate,even better results
